Reference: PubChem BioAssay (NCI)
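48-hour exposure; five concentrations; linearly interpolated endpoints. Definition used: TGI = concentration required for complete inhibition of growth.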

Columns and labels:
Assay in all cases: NCI tumour cell line growth inhibition, 48 h
[1] = test system: SK-MEL-5 melanoma
[2] = test system: HT29 colon
[3] = test system: M19-MEL melanoma
[4] = test system: OVCAR-8 ovarian
[5] = test system: CAKI-1 renal
[6] = test system: HOP-92 NSCLC
[7] = test system: SNB-78 CNS
[8] = test system: HOP-18 NSCLC
[9] = test system: SK-OV-3 ovarian
[10] = test system: SK-MEL-2 melanoma
[11] = test system: MALME-3M melanoma
[12] = test system: LXFL 529 NSCLC
[13] = test system: NCI-H522 lung
[14] = test system: UACC-257 melanoma
[15] = test system: NCI-H226 lung
[16] = test system: LOX IMVI melanoma
[17] = test system: IGROV1 ovarian
[18] = test system: HL-60(TB) leukemia
[19] = test system: RPMI-8226 leukemia
[20] = test system: K-562 leukemia
[21] = test system: SW-620 colon
[22] = test system: NCI-H460 lung
[23] = test system: SF-295 CNS
[24] = test system: DMS 273 small cell lung
[25] = test system: RXF 393 renal
[26] = test system: SNB-75 CNS
[27] = test system: SF-539 CNS
[28] = test system: M14 melanoma
[29] = test system: CCRF-CEM leukemia
[30] = test system: KM20L2 colon
[31] = test system: A549 NSCLC
[32] = test system: ACHN renal
[33] = test system: SR leukemia
[34] = test system: 786-0 renal
[35] = test system: DLD-1 colon
[36] = test system: TK-10 renal
[37] = test system: OVCAR-5 ovarian
[38] = test system: SN12C renal
[39] = test system: SF-268 CNS
[40] = test system: SK-MEL-28 melanoma
[41] = test system: DMS 114 small cell lung
[42] = test system: COLO 205 colon
[43] = test system: HOP-62 NSCLC
[44] = test system: UACC-62 melanoma
[45] = test system: U251 CNS
[46] = test system: OVCAR-4 ovarian
[47] = test system: HCT-15 colon
[48] = test system: MOLT-4 leukemia
[49] = test system: HCT-116 colon
[50] = test system: UO-31 renal
[51] = test system: NCI-H23 lung
[52] = test system: OVCAR-3 ovarian
[53] = test system: KM12 colon
[54] = test system: XF 498 CNS
[55] = test system: RXF-631 renal
[56] = test system: EKVX NSCLC
[57] = test system: A498 renal
[58] = test system: HCC-2998 colon
[59] = test system: SNB-19 CNS

CC(=O)Nc1ccc(-c2nnc(SCC(=O)Nc3cccc([N+](=O)[O-])c3)o2)cc1
TGI [1]: 27.1 µM | TGI [2]: 37.2 µM | TGI [3]: 28.3 µM | TGI [4]: 33.4 µM | TGI [5]: 55.8 µM | TGI [6]: 35.3 µM | TGI [7]: 50 µM | TGI [8]: 65.9 µM | TGI [9]: 24.5 µM | TGI [10]: 37.2 µM | TGI [11]: 23.9 µM | TGI [12]: 17 µM | TGI [13]: 22.4 µM | TGI [14]: 51.4 µM | TGI [15]: 23.6 µM | TGI [16]: 23 µM | TGI [17]: 31.4 µM | TGI [18]: 58.2 µM | TGI [19]: 75.8 µM | TGI [20]: 57.5 µM | TGI [21]: 44 µM | TGI [22]: 28.8 µM | TGI [23]: 32 µM | TGI [24]: 23.5 µM | TGI [25]: 25.7 µM | TGI [26]: 32.9 µM | TGI [27]: 31.4 µM | TGI [28]: 29.7 µM | TGI [29]: > 100 µM | TGI [30]: 37.4 µM | TGI [31]: 46.3 µM | TGI [32]: 43.7 µM | TGI [33]: 89.2 µM | TGI [34]: 40.6 µM | TGI [35]: 35.5 µM | TGI [36]: 67.5 µM | TGI [37]: 50.2 µM | TGI [38]: 33.2 µM | TGI [39]: 31.7 µM | TGI [40]: 33.3 µM | TGI [41]: 22.3 µM | TGI [42]: 33.8 µM | TGI [43]: 45.8 µM | TGI [44]: 23.7 µM | TGI [45]: 29.3 µM | TGI [46]: 25.3 µM | TGI [47]: 46.2 µM | TGI [48]: > 100 µM | TGI [49]: 27.4 µM | TGI [50]: 39.8 µM | TGI [51]: 21.2 µM | TGI [52]: 40.5 µM | TGI [53]: 39.4 µM

CCC(=O)C(C)C(=O)C(=O)C(=O)OC (stereo not drawn)
TGI [1]: > 100 µM | TGI [2]: > 100 µM | TGI [54]: > 100 µM | TGI [3]: > 100 µM | TGI [4]: > 100 µM | TGI [55]: > 100 µM | TGI [5]: > 100 µM | TGI [6]: > 100 µM | TGI [7]: > 100 µM | TGI [8]: > 100 µM | TGI [9]: > 100 µM | TGI [10]: > 100 µM | TGI [11]: > 100 µM | TGI [12]: > 100 µM | TGI [13]: > 100 µM | TGI [56]: > 100 µM | TGI [14]: > 100 µM | TGI [15]: > 100 µM | TGI [16]: > 100 µM | TGI [17]: > 100 µM | TGI [18]: > 64.4 µM | TGI [19]: > 100 µM | TGI [20]: > 100 µM | TGI [21]: > 45.7 µM | TGI [22]: > 100 µM | TGI [23]: > 100 µM | TGI [24]: > 100 µM | TGI [25]: 99.3 µM | TGI [26]: > 100 µM | TGI [27]: > 100 µM | TGI [28]: > 100 µM | TGI [29]: > 69.1 µM | TGI [30]: > 100 µM | TGI [31]: > 100 µM | TGI [32]: > 100 µM | TGI [33]: > 100 µM | TGI [57]: > 100 µM | TGI [34]: > 100 µM | TGI [35]: > 100 µM | TGI [36]: > 100 µM | TGI [37]: > 100 µM | TGI [58]: > 100 µM | TGI [38]: > 100 µM | TGI [39]: > 100 µM | TGI [40]: > 100 µM | TGI [41]: > 100 µM | TGI [42]: > 100 µM | TGI [43]: > 100 µM | TGI [44]: > 100 µM | TGI [45]: > 68.2 µM | TGI [46]: > 100 µM | TGI [47]: > 100 µM | TGI [48]: > 91.5 µM | TGI [59]: > 100 µM | TGI [49]: > 100 µM | TGI [50]: > 100 µM | TGI [51]: > 100 µM | TGI [52]: > 100 µM | TGI [53]: > 100 µM

O=c1cc(-c2ccccc2)[nH]c2c(Cl)cccc12
TGI [1]: 45.4 µM | TGI [2]: > 100 µM | TGI [54]: 96.4 µM | TGI [3]: > 100 µM | TGI [4]: > 100 µM | TGI [55]: > 100 µM | TGI [10]: > 100 µM | TGI [11]: > 100 µM | TGI [12]: > 100 µM | TGI [56]: > 100 µM | TGI [14]: > 100 µM | TGI [15]: 81 µM | TGI [16]: > 100 µM | TGI [17]: > 100 µM | TGI [18]: > 100 µM | TGI [19]: > 100 µM | TGI [20]: > 100 µM | TGI [21]: > 100 µM | TGI [22]: > 100 µM | TGI [23]: 58.5 µM | TGI [24]: > 100 µM | TGI [25]: 67.1 µM | TGI [26]: 54.8 µM | TGI [27]: 41.7 µM | TGI [28]: > 100 µM | TGI [29]: > 100 µM | TGI [30]: 36 µM | TGI [31]: > 100 µM | TGI [32]: > 100 µM | TGI [33]: > 100 µM | TGI [57]: 91.6 µM | TGI [34]: > 100 µM | TGI [35]: > 100 µM | TGI [36]: > 100 µM | TGI [58]: > 100 µM | TGI [38]: > 100 µM | TGI [39]: > 100 µM | TGI [40]: > 100 µM | TGI [41]: > 100 µM | TGI [42]: > 100 µM | TGI [43]: > 100 µM | TGI [44]: 67.3 µM | TGI [45]: > 100 µM | TGI [46]: 66.3 µM | TGI [47]: > 100 µM | TGI [48]: > 100 µM | TGI [59]: > 100 µM | TGI [49]: > 100 µM | TGI [50]: > 100 µM | TGI [51]: > 100 µM | TGI [52]: > 100 µM
